Laboratory results from publication PMC8870237, “Improved Multimodal Tumor Necrosis Imaging with IRDye800CW-DOTA Conjugated to an Albumin-Binding Domain” (Cancers, 2022).

System: 4T1-Luc2 tumor-bearing mice
Experiment: Ex vivo biodistribution in 4T1-Luc2 tumor-bearing mice
Set-up: species or system mouse
Details: for Tumor to blood ratio / Tumor to muscle ratio: 4T1-Luc2 tumors; for Blood uptake / Bone marrow uptake / Bone uptake / Brain uptake / Colon uptake / Heart uptake / Kidneys uptake / Liver uptake / Lung uptake / Lymph nodes uptake / Muscle uptake / Pancreas uptake / Skin uptake / Small intestine uptake / Spleen uptake / 4T1-Luc2 Tumors uptake: ±SEM; for Blood uptake / Bone marrow uptake / Bone uptake / Brain uptake / Colon uptake / Heart uptake / Kidneys uptake / Liver uptake / Lung uptake / Lymph nodes uptake / Muscle uptake / Pancreas uptake / Skin uptake / Small intestine uptake / Spleen uptake: n = 4; for 4T1-Luc2 Tumors uptake: n = 8
Description: Female BALB/cAnNRj-nude mice (six to eight weeks old) were housed in ventilated cages in groups of four to six mice and were provided standard laboratory animal food pellets and water ad libitum. One week after arrival, tumor cells were injected bilaterally on the shoulders. Tumor growth was monitored three days per week with a caliper. All groups consisted of four mice with bilateral tumors.
The 4T1-Luc2 cells (1.0 × 10^5) suspended in 15 µL PBS were inoculated bilaterally in 16 mice in four groups of four animals each. […] First, FLI imaging was performed with a 730 nm excitation and 760 nm emission filter for 400 ms with 4 × 4 binning. Then, the mice received an intraperitoneal injection of D-luciferin (150 mg/kg) maintaining the position of the mice in the bed unaltered, and BLI imaging was performed with an open filter for 400 ms with 4 × 4 binning. Full body (head to tail base) SPECT images of the 5 cm axial field of view were obtained over a total scan time of 30 min, followed by a 2 min full-body CT. After imaging, the mice were euthanized for ex vivo analysis.
After the final imaging experiments, the mice were sacrificed by cervical dislocation, tumors and organs were collected, weighted, and activity was accurately quantified by γ-counting to determine radioactivity uptake in the percentage of injected dose per gram (%ID/g). After γ-counting, the tumors were frozen in liquid nitrogen and stored at −80 °C overnight. Adjacent cryosections (10 µm) were prepared of the tumor centers for autoradiography. The sections were stored at −20 °C for the radioactivity to decay, before 800 nm fluorescence imaging and histochemical dead cell staining.

`CC1(C)C(=CC=C2CCCC(C=CC3=[N+](CCCCCC(=O)NCCCC[C@H](NC(=O)CCCc4ccc(I)cc4)C(=O)NCc4ccc(CNC(=O)CN5CCN(CC(=O)[O-])CCN(CC(=O)[O-])CCN(CC(=O)[O-])CC5)cc4)c4ccc(S(=O)(=O)O)cc4C3(C)C)=C2Oc2ccc(S(=O)(=O)O)cc2)N(CCCCS(=O)(=O)O)c2ccc(S(=O)(=O)O)cc21.[111In+3]` [[^111In]3] was tested, and the excretion route (4T1-Luc2 tumor-bearing mice, from biodistribution) was “predominately excreted via the renal tract”, the blood half-life (4T1-Luc2 tumor-bearing mice, i.v.) was 9 h and the “Tumor to blood ratio” value (6 h p.i.) was 0.91±0.05. The “Tumor to muscle ratio” value (6 h p.i.) was 3.19±0.43, the Blood uptake (6 h p.i., i.v.) was 4.34±0.22 %ID/g and the Bone marrow uptake (6 h p.i., i.v.) was 1.42±0.87 %ID/g. The Bone uptake (6 h p.i., i.v.) was 1.63±0.16 %ID/g, the Brain uptake (6 h p.i., i.v.) was 0.14±0.03 %ID/g and the Colon uptake (6 h p.i., i.v.) was 1.60±0.13 %ID/g. The Heart uptake (6 h p.i., i.v.) was 2.32±0.11 %ID/g, the Kidneys uptake (6 h p.i., i.v.) was 6.04±1.13 %ID/g and the Liver uptake (6 h p.i., i.v.) was 2.24±0.28 %ID/g. The Lung uptake (6 h p.i., i.v.) was 3.29±0.25 %ID/g, the Lymph nodes uptake (6 h p.i., i.v.) was 3.91±0.97 %ID/g and the Muscle uptake (6 h p.i., i.v.) was 1.31±0.20 %ID/g. It also gave a Pancreas uptake (6 h p.i., i.v.) of 1.33±0.13 %ID/g, a Skin uptake (6 h p.i., i.v.) of 2.59±0.09 %ID/g and a Small intestine uptake (6 h p.i., i.v.) of 0.93±0.07 %ID/g. For the same compound, the Spleen uptake (6 h p.i., i.v.) was 1.87±0.18 %ID/g, the “4T1-Luc2 Tumors uptake” value (6 h p.i., i.v.) was 3.94±0.19 %ID/g and the “Tumor to blood ratio” value (24 h p.i.) was 2.50 ± 0.20. The “Tumor to muscle ratio” value (24 h p.i.) was 7.26±0.89, the Blood uptake (24 h p.i., i.v.) was 1.31±0.05 %ID/g and the Bone uptake (24 h p.i., i.v.) was 0.93±0.13 %ID/g. The Brain uptake (24 h p.i., i.v.) was 0.07±0.00 %ID/g, the Colon uptake (24 h p.i., i.v.) was 0.70±0.07 %ID/g and the Heart uptake (24 h p.i., i.v.) was 1.22±0.06 %ID/g. For the same compound, the Liver uptake (24 h p.i., i.v.) was 1.20±0.01 %ID/g, the Lung uptake (24 h p.i., i.v.) was 1.20±0.04 %ID/g and the Lymph nodes uptake (24 h p.i., i.v.) was 2.42±0.18 %ID/g. It also gave a Muscle uptake (24 h p.i., i.v.) of 0.46±0.03 %ID/g, a Pancreas uptake (24 h p.i., i.v.) of 0.65±0.05 %ID/g and a Skin uptake (24 h p.i., i.v.) of 1.83±0.29 %ID/g. The Small intestine uptake (24 h p.i., i.v.) was 0.53±0.05 %ID/g, the Spleen uptake (24 h p.i., i.v.) was 1.45±0.03 %ID/g and the “4T1-Luc2 Tumors uptake” value (24 h p.i., i.v.) was 3.27±0.25 %ID/g. For the same compound, the “Tumor to blood ratio” value (48 h p.i.) was 4.54±0.45, the “Tumor to muscle ratio” value (48 h p.i.) was 7.27±0.34 and the Blood uptake (48 h p.i., i.v.) was 0.58±0.01 %ID/g. For the same compound, the Bone uptake (48 h p.i., i.v.) was 0.74±0.04 %ID/g, the Brain uptake (48 h p.i., i.v.) was 0.04±0.00 %ID/g and the Colon uptake (48 h p.i., i.v.) was 0.37±0.02 %ID/g. For the same compound, the Heart uptake (48 h p.i., i.v.) was 0.78±0.01 %ID/g, the Kidneys uptake (48 h p.i., i.v.) was 8.31±0.96 %ID/g and the Liver uptake (48 h p.i., i.v.) was 0.90±0.04 %ID/g. The Lung uptake (48 h p.i., i.v.) was 0.76±0.03 %ID/g, the Lymph nodes uptake (48 h p.i., i.v.) was 3.30±0.62 %ID/g and the Muscle uptake (48 h p.i., i.v.) was 0.36±0.03 %ID/g. The Pancreas uptake (48 h p.i., i.v.) was 0.48±0.04 %ID/g, the Skin uptake (48 h p.i., i.v.) was 1.46±0.03 %ID/g and the Small intestine uptake (48 h p.i., i.v.) was 0.33±0.01 %ID/g. The Spleen uptake (48 h p.i., i.v.) was 1.19±0.07 %ID/g, the “4T1-Luc2 Tumors uptake” value (48 h p.i., i.v.) was 2.62±0.23 %ID/g and the “Tumor to blood ratio” value (72 h p.i.) was 7.36±0.93. The “Tumor to muscle ratio” value (72 h p.i.) was 9.10±1.58, the Blood uptake (72 h p.i., i.v.) was 0.31±0.03 %ID/g and the Bone marrow uptake (72 h p.i., i.v.) was 2.25±0.65 %ID/g. The Bone uptake (72 h p.i., i.v.) was 0.51±0.05 %ID/g, the Brain uptake (72 h p.i., i.v.) was 0.03±0.00 %ID/g and the Colon uptake (72 h p.i., i.v.) was 0.23±0.02 %ID/g. The Heart uptake (72 h p.i., i.v.) was 0.63±0.02 %ID/g, the Kidneys uptake (72 h p.i., i.v.) was 5.72±0.49 %ID/g and the Liver uptake (72 h p.i., i.v.) was 0.83±0.04 %ID/g. The Lung uptake (72 h p.i., i.v.) was 0.56±0.05 %ID/g, the Lymph nodes uptake (72 h p.i., i.v.) was 2.39±0.25 %ID/g and the Muscle uptake (72 h p.i., i.v.) was 0.26±0.03 %ID/g. For the same compound, the Pancreas uptake (72 h p.i., i.v.) was 0.32±0.02 %ID/g, the Skin uptake (72 h p.i., i.v.) was 1.52±0.09 %ID/g and the Small intestine uptake (72 h p.i., i.v.) was 0.20±0.02 %ID/g. The Spleen uptake (72 h p.i., i.v.) was 1.10±0.18 %ID/g, the “4T1-Luc2 Tumors uptake” value (72 h p.i., i.v.) was 2.25±0.64 %ID/g and the “ex vivo colocalization with dead cells (autoradiography, NIR fluorescence, TUNEL)” value (adjacent sections of 4T1-Luc2 tumors) was “specific binding of the tracer to necrotic tumor regions”.
